Measured values taken from patent US20260327250A1, “3-ETHYLAMINO-INDOLE DIMERS AS SEROTONERGIC AGENTS USEFUL FOR THE TREATMENT OF DISORDERS RELATED THERETO” (MINDSET PHARMA INC., priority 2022, published 2026).
Structures can show the parent of a compound that is named as a salt. Where two headings read alike, the source gives them in different places.

What was measured:
human 5-HT2A receptor = human 5-HT2A receptor (Homo sapiens, UniProt P28223); experiment: Human 5-HT2A radioligand binding assay ([3H]-ketanserin)
Sequence of human 5-HT2A receptor (P28223 whole entry): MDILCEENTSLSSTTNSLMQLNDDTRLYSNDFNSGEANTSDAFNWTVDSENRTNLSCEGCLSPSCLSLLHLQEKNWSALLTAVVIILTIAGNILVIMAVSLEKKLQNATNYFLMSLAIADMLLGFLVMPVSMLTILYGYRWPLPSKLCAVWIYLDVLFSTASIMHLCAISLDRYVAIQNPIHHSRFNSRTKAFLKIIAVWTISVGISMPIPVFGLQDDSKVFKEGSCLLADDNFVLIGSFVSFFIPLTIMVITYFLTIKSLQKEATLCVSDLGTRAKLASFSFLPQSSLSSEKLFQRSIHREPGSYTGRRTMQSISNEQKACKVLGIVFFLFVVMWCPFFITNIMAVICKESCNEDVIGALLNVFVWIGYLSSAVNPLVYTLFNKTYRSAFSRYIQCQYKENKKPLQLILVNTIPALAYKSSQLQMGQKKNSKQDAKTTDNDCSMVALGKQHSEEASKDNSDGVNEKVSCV
Protocol: The objective of this study was to evaluate the binding properties of exemplary compounds of Formula I on 5-hydroxytryptamine receptor 2A (5-HT2A).
(§1) • 1. The assay buffer was prepared following the table below.
UniFilter-96 GF/B plate was pretreated: • i. 50 μl/well of 0.5% (v/v) PEI was added to UniFilter-96 GF/C plates. The plates were sealed and incubated at 4° C. for 3 hrs. • ii. After incubation, the plates were washed 3 times with ice-cold wash buffer (50 mM Tris, pH7.4). • 4. […] Cell membrane was diluted with assay buffer and 330 μl/well was added to 96 round deep well plates to reach a concentration of 20 μg/well. • ii. 8 concentrations of reference or test compounds were prepared and 110 μl/well was added to 96 round deep well plates. • iii. […] The plate was centrifuged at 1000 rpm for 30 secs and then agitated at 600 rpm, R.T. for 5 min. • 6. […] The filter plates were sealed and 40 μl/well of scintillation cocktail was added. • 10. The plate was read by using a Microbeta^2 microplate counter.
• 1. […] The IC50 was determined by fitting percentage of inhibition as a function of compound concentrations with Hill equation using XLfit.

human 5-HT1A receptor = biological target: T1, human 5-HT1A receptor (Homo sapiens, UniProt P08908); experiment: Human 5-HT1A radioligand binding assay ([3H]-8-Hydroxy-DPAT)
T1 sequence (P08908 1-422): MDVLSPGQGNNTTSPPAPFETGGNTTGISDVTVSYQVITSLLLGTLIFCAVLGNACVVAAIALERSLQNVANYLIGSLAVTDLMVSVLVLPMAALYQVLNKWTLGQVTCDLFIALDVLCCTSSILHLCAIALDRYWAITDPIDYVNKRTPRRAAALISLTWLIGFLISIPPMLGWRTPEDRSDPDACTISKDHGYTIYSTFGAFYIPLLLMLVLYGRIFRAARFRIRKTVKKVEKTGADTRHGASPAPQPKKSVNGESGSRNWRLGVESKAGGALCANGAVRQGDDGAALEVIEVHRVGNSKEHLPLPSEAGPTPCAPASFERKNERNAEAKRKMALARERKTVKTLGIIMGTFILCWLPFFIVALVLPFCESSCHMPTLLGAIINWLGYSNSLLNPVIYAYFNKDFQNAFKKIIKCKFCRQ
Protocol: The objective of this study was to evaluate the binding properties of test compounds on 5-hydroxytryptamine receptor 1A.
as §1
pH was adjusted to 7.4 followed by […] sterile filtration • 1. 8 doses of reference and test compounds were prepared starting from 10 mM stock solution as required by 5-fold serial dilutions with 100% (v/v) DMSO. • 2. UniFilter-96 GF/B Plate was Pretreated: • i. 50 μl/well of 0.5% (v/v) PEI was added to UniFilter-96 GF/B plates. The plates were sealed and incubated at 4° C. for 3 hrs. • ii. After incubation, the plates were washed 3 times with ice-cold wash buffer (50 mM Tris, pH7.4).
• i. Cell membrane was diluted with assay buffer and 100 μl/well was added to 96 round well plates to reach a concentration of 20 μg/well. • ii. 8 concentrations of reference or test compounds were prepared and 50 μl/well was added to 96 round deep well plates. • iii. [3H]-8-Hydroxy-DPAT was diluted with assay buffer to 2 nM (4× final concentration) and 50 μl/well was added to 96 round well plates. • 4. The plate was centrifuged at 1000 rpm for 30 secs and then agitated at 600 rpm, R.T. for 5 min. • 5. The plates were sealed and the plate was incubated at 27° C. for 90 min. • 6. The incubation was stopped by vacuum filtration onto GF/B filter plates followed by 4 times washing with ice-cold wash buffer (50 mM Tris, pH7.4). • 7. The plates were dried at 37° C. for 45 min. • 8. The filter plates were sealed and 40 μl/well of scintillation cocktail was added. • 9. The plate was read by using a Microbeta^2 microplate counter.
• 1. For reference and test compounds, the results were expressed as % Inhibition, using the normalization equation: N=100-100×(U−C2)/(C1−C2), where U is the unknown value, C1 is the average of high controls, and C2 is the average of low controls. • 2. The IC50 was determined by fitting percentage of inhibition as a […] of compound concentrations with Hill equation using XLfit. Results and Discussion

in vitro [1] = conditions: mouse, microsomes
Protocol: (§2) The concentrations of parent compounds in reaction systems were evaluated by LC-MS/MS for estimating the stability in pooled human, male rat and male mouse liver microsomes. The in vitro intrinsic clearances of test compounds were determined as well. Protocol
(§3) A master solution in the “Incubation Plate” containing phosphate buffer, ultra-pure H2O, MgCl2 solution and liver microsomes was made according to Table 6. The mixture was pre-warmed at 37° C. water bath for 5 minutes.
(§4) The reaction was started with the addition of 4 μL of 200 μM exemplary test compounds of the application or control compounds to each master solution to get the final concentration of 2 μM. This study was performed in duplicate.
(§5) Aliquots of 50 μL were taken from the reaction solution at 0, 15, 30, 45 and 60 minutes. The reaction solutions were stopped by the addition of 4 volumes of cold methanol with IS (100 nM alprazolam, 200 nM imipramine, 200 nM labetalol and 2 μM ketoprofen). Samples were centrifuged at 3,220 g for 40 minutes. Aliquot of 90 μL of the supernatant was mixed with 90 μL of ultra-pure H2O and then was used for LC-MS/MS analysis.
(§6) All calculations were carried out using Microsoft Excel. Peak area ratios of test compound to internal standard (listed in the below table) were determined from extracted ion chromatograms.
(§7) All calculations were carried out using Microsoft Excel. Peak areas were determined from extracted ion chromatograms. The slope value, k, was determined by linear regression of the natural logarithm of the remaining percentage of the parent drug vs. incubation time curve.
(§8) The in vitro half-life (in vitro t½) was determined from the slope value:
(§9) Conversion of the in vitro t½ (min) into the in vitro intrinsic clearance (in vitro CLint, in μL/min/mg proteins) was done using the following equation (mean of duplicate determinations):

in vitro [2] = conditions: rat, microsomes
Protocol: as §2, §3, §4, §5, §6, §7, §8, §9

[3] = [3H]-ketanserin, 27° C., 90 min, read-out: h5-HT2A, IC50
[4] = [3H]-8-Hydroxy-DPAT, 27° C., 90 min, read-out: h5-HT1A, IC50

SMILES | IC50 (human 5-HT2A receptor; [3]) | IC50 (human 5-HT1A receptor; [4]) | half-life at 2 µM (in vitro [1]) | microsomal CLint at 2 µM (in vitro [1]) | remaining at 1 h, 2 µM (in vitro [1]) | half-life at 2 µM (in vitro [2]) | microsomal CLint at 2 µM (in vitro [2]) | remaining at 1 h, 2 µM (in vitro [2]) | IC50 (human 5-HT2A receptor) | IC50 (human 5-HT1A receptor)
CC(C)N(CCc1c[nH]c2cccc(O)c12)C(C)C [Compound 7] | 6.41 µM | 4.69 µM | – | – | – | – | – | – | – | –
CN(C)CCc1c[nH]c2cccc(OC(=O)CCCC(=O)Oc3cccc4[nH]cc(CCN(C)C)c34)c12 [Compound I-24, Bis(3-(2-(dimethylamino)ethyl)-1H-indol-4-yl) glutarate] | 0.127 µM | 0.336 µM | < 4.51 min | > 307 µL/min/mg | 0% | < 4.51 min | > 307 µL/min/mg | 0% | – | –
CC(C)N(CCc1c[nH]c2cccc(OC(=O)CCCC(=O)Oc3cccc4[nH]cc(CCN(C(C)C)C(C)C)c34)c12)C(C)C [Compound I-37, Bis(3-(2-(diisopropylamino)ethyl)-1H-indol-4-yl) glutarate dihydrochloride] | – | – | < 4.51 min | > 307 µL/min/mg | 0% | < 4.51 min | > 307 µL/min/mg | 0% | 0.547 µM | 3.96 µM
CN(C)CCc1c[nH]c2cccc(O)c12 [Psilocin, 4-hydroxy-N,N-dimethyltryptamine, reference compound] | – | – | – | – | 96.9% | – | – | 62.7% | – | –
CN(C)CCc1c[nH]c2cccc(OP(=O)(O)O)c12 [Psilocybin] | – | 4.79 µM | – | – | – | – | – | – | – | –
